Experimental data published in paper PMC9499467, “Phenanthroindolizidine Alkaloids Isolated from Tylophora ovata as Potent Inhibitors of Inflammation, Spheroid Growth, and Invasion of Triple-Negative Breast Cancer” (International Journal of Molecular Sciences, 2022).
Read-outs that look alike come from different tables or passages of the source.

What was measured:
[1] = tested on: 3D co-culture spheroids of MDA-MB-231 and primary murine CAFs; assay: 3D cell viability (ATP content) in TNBC co-culture spheroids; type: cell-based, human MDA-MB-231
Protocol: On day 1, 3000 cells were seeded into a low-attachment 96 well plate (Greiner; #650970). […] Cell viability was determined based on the ATP content in viable cells according to the manufacturer`s instructions (Promega #G9682). Co-culture spheroids were generated for 72 h before they were grown for another 72 h with or without exposure to the compounds. […] Cell viability-dependent luminescence was determined as relative light units (RLU) using the microplate reader Spark® (Tecan).

MDA-MB-231 = assay: 2D cell viability (PrestoBlue resazurin) in MDA-MB-231; type: cell-based, human; settings: read-out: Reduction of Cell Viability 24 h IC50; MDA-MB-231 2D monolayer, 24 h post-treatment, mean ± SD
Protocol: Cell viability was determined based on resazurin-reduction in viable cells according to the PrestoBlue^TM Assay. On day 1, MDA-MB-231 (1.5 × 10^4 cells per well or 7.5 × 10^3 cells per well) were seeded into black 96 well plates (Greiner; #655090) in a total volume of 100 µL. On day 2, the compounds or DMSO (Roth; #A994.1) alone at maximal 0.1% were applied (final concentrations after serial dilution shown in Table 3). An amount of 20 µM staurosporine (Sigma-Aldrich; #S5921) served as a positive control. On day 3, the PrestoBlue^TM reagent (Invitrogen^TM, Darmstadt, Germany; #A13262) was applied according to the manufacturer`s instructions. Finally, cell viability-dependent fluorescence was recorded in relative fluorescence units (RFU) with excitation/emission (Exλ/Emλ) at 535/590 nm or 560/590 nm, using the microplate reader Spark® (Tecan).

CAFs = assay: 2D cell viability in CAFs; type: cell-based, murine; settings: Mus musculus, 24 h, read-out: Reduction of Cell Viability 24 h IC50 in CAFs
Protocol: Table S1 IC50-values for reduction of cell viability determined in CAFs.
Compound Cell Viability 1
1 Cell viability of CAFs was determined 24 h post-treatment with the 2D cell viability assay. CAFs were seeded at a cell density of 2.5 × 10^3 cells per well. Compound concentration was applied in triplicates in a four-fold serial dilution starting at 1000 nM. 2 Duration of treatment. 3 Mean ± SD […]
50 µM. 4 Mean ± SD (n = 3). 5 Mean ± SD (n = 2).

NFκB = NFκB inhibition assay (2 h), NFκB-dependent nanoluc luciferase reporter; type: cell-based, human; settings: read-out: NFκB Inhibition 2 h IC50; NFκB-MDA-MB-231-nanoluc cells, 2-h treatment, mean ± SD
Protocol: Experiments were performed according to the published protocol. On day 1, 4 × 10^4 NFκB-MDA-MB-231-nanoluc cells were seeded into white 96 well plates (Greiner; #655098). On day 2, the medium was replaced with starvation medium and the cells were pre-incubated for 20 min with either 100 µL of DMSO (Roth; #A994.1) alone at a concentration of maximal 0.1% or with the final concentration of the diluted compounds (Table 3). To activate NFκB signaling, cells were stimulated with 1 µg/mL LPS (Sigma-Aldrich; #L2630) beforehand. NFκB-dependent luciferase activity was measured according to the manufacturer`s protocol for the Nano-Glo Luciferase Assay System (Promega, Mannheim, Germany; #N1110). NFκB-dependent luminescence was determined as relative light units (RLU) using the microplate reader Spark® (Tecan, Männedorf, Switzerland).

[2] = tested on: MDA-MB-231 monoculture spheroids; assay: 3D invasion of monoculture spheroids into matrigel; type: cell-based, human; settings: 10 nM, 48 h
Protocol: To study TNBC invasion in an extracellular matrix (ECM)-like environment, mono-culture spheroids of MDA-MB-231 were generated in matrigel®, as described. In brief, 3000 MDA-MB-231 cells were seeded in 0.25% (v/v) matrigel® (Corning, Taufkirchen, Germany; #356432) into a low-attachment 96 well plate (Greiner; #650970 or Cenibra, Bramsche, Germany; #ULA-96U). For cell aggregation, cells were centrifugated for 10 min at 136× g at 4 °C before being grown for 72 h. Invasion was allowed for another […] before analyzing at least three spheroids per treatment group. For that purpose, brightfield images of the spheroids were acquired at 50× g magnification using the microscope Axio Vert.A1 (Zeiss). The spheroid area before treatment and the spheroid area including the invaded area after compound treatment were quantified in brightfield images using Fiji (open-source software; version 1.52i).
Figure 6 Compound (1s) blocks TNBC monoculture spheroid invasion in a matrigel®-based extracellular matrix (ECM). […] (a) Invaded area was measured using Fiji (open-source software; version 1.52i) with manually picked positions (white squares) to determine the outline (yellow line) of the spheroid area within 0 h and after 48-h treatment. […] (c) Invaded area is calculated by normalizing the spheroid area after 48 h treatment to the spheroid size at 0 h. […]

HIF-1α = assay: HIF inhibition, HIF-mediated UnaG reporter expression; type: cell-based; settings: for decrease of HIF-1α-mediated UnaG expression: normoxia, MDA-MB-468-UnaG
Protocol: The HIF activity after treatment with compound (1s) or with the commercially available NFκB inhibitor BAY 11-7085 ((Hycultec, Beutelsbach, Germany; #HY-10257-10),) for 24 h was determined using the UnaG-reporter gene cell line MDA-MB-468-UnaG. On day 1, 1.5 × 10^4 MDA-MB-468-UnaG cells were seeded into a black 96 well plate (Greiner; #655090). […] HIF-mediated UnaG expression was recorded in z-stacked images using the CQ1 high-content imaging system (Yokogawa, Wehr, Germany; 100× g magnification). Beforehand, the UnaG fluorescence intensity was determined in UnaG-expressing cell clones (Figure S5).
Figure 7 Compound (1s) decreases HIF-dependent gene transcription. MDA-MB-468-UnaG cells were pre-treated for 1 h without (CTRL) or with compound (1s) or BAY 11-7085 (BAY) before being grown (a,b) in the absence (normoxia; CTRL) or (c,d) presence of 100 µM CoCl2 (hypoxia) for another 24 h. (a,c) Representative fluorescence images. Scale bar: 200 µm (b,d) Total fluorescence intensity of HIF-mediated UnaG was normalized to the CTRL group. Statistical difference was calculated with one-way ANOVA (b) vs. CTRL (normoxia) (ns = not significant, * p < 0.05). (d) vs. CTRL (hypoxia) (# p < 0.05); vs. CoCl2 (* p < 0.05, ** p < 0.01, *** p < 0.001). (b,d) Columns represent the mean ± SEM (n = 3).

Row | Structure (SMILES) | IC50 ([1]; read-out: Reduction of Cell Viability 72 h IC50, 3D co-culture spheroids, 72 h treatment, mean ± SD (n = 3)) [nM] | IC50 (MDA-MB-231) [nM] | IC50 (CAFs) [nM] | IC50 (NFκB) [nM] | IC50 ([1]; Mus musculus, MDA-MB-231, 72 h, read-out: Reduction of Cell Viability 72 h IC50, 3D co-culture spheroids, 72 h treatment, mean ± SD (n = 3)) [nM] | blockade of invasion (invaded area) [2] | reduction of HIF-1α-activity (HIF-1α; CoCl2-simulated hypoxia (100 µM), 20 nM, 24 h) [%] | decrease of HIF-1α-mediated UnaG expression (HIF-1α; 10 nM, 24 h) [%] | decrease of HIF-1α-mediated UnaG expression (HIF-1α; 20 nM, 24 h) [%] | CoCl2-induced increase in HIF-1α-activity (HIF-1α; pre-treatment before CoCl2-simulated hypoxia, 6 µM BAY 11-7085, 2, 5, 10, 20 nM (1s))
1 | COc1ccc2c3c(c4cc(OC)c(OC)cc4c2c1)CN1CCCC1C3O (stereo not drawn) [Compound (1), O-methyltylophorinidine] | 21.7 ± 2.5 | 13.6 ± 0.4 | 2.7 ± 0.9 | 17.1 ± 2 |  |  |  |  |  | 
2 | COc1ccc2c3c(c4cc(OC)c(OC)cc4c2c1)CN1CCCC1C3O (stereo not drawn) [Compound (1s), O-methyltylophorinidine] |  | 4.2 ± 1 |  | 3.3 ± 0.2 | 11.2 ± 2.1 | approximately 65% | 14 ± 4 | 11 ± 3 | 13 ± 4 | blocked
